Measured values published in ChEMBL document CHEMBL3885861, “Open TG-GATES”.

Species on record: Rattus norvegicus
Assay: Open TG-GATES - Regimen: Daily Repeat
Type: toxicity, organism-based, Sprague-Dawley
Design: regimen Daily Repeat, gender Male, age 6 weeks
Conditions: in vivo, po, 80 mg/kg, route gavage, dose level Middle; for APTT / Bas / Eos / Fbg / Hb / Ht / Lym / MCH / MCHC / MCV / Mono / Neu / PT / Plat / RBC / Ret / WBC: tissue Blood; for KIDNEY_L / KIDNEY_R / KIDNEY_TOTAL: tissue Kidney; for LIVER: tissue Liver; for A/G / ALP / ALT / AST / BUN / CRE / Ca / Cl / DBIL / GLC / IP / K / LDH / Na / PL / RALB / TBIL / TC / TG / TP / gamma-GTP: tissue Plasma

SMILES: CCSCC[C@H](N)C(=O)O [ETHIONINE]
- TERMINAL_BW (72 h, time 3 day): 221.5 g
- APTT (72 h, time 3 day): 24.9 s
- Bas (72 h, time 3 day): 0%
- Eos (72 h, time 3 day): 1%
- Fbg (72 h, time 3 day): 201 mg/dL
- Hb (72 h, time 3 day): 14 g/dL
- Ht (72 h, time 3 day): 41.5%
- Lym (72 h, time 3 day): 85.4%
- MCH (72 h, time 3 day): 20.9 pg
- MCHC (72 h, time 3 day): 33.7%
- MCV (72 h, time 3 day): 62.1 fL
- Mono (72 h, time 3 day): 2.8%
- Neu (72 h, time 3 day): 9.6%
- PT (72 h, time 3 day): 15.3 s
- Plat (72 h, time 3 day): 123 x10_4/uL
- RBC (72 h, time 3 day): 669.2 x10_4/ul
- Ret (72 h, time 3 day): 4.8%
- WBC (72 h, time 3 day): 93.2 x10_2/uL
- KIDNEY_L (72 h, time 3 day): 1 g
- KIDNEY_R (72 h, time 3 day): 1 g
- KIDNEY_TOTAL (72 h, time 3 day): 2 g
- LIVER (72 h, time 3 day): 9.7 g
- A/G (72 h, time 3 day): 1.8
- ALP (72 h, time 3 day): 983 IU/L
- ALT (72 h, time 3 day): 37.8 IU/L
- AST (72 h, time 3 day): 65.6 IU/L
- BUN (72 h, time 3 day): 17.2 mg/dL
- CRE (72 h, time 3 day): 0.4 mg/dL
- Ca (72 h, time 3 day): 10.5 mg/dL
- Cl (72 h, time 3 day): 102 meq/L
- DBIL (72 h, time 3 day): 0.088 mg/dL
- GLC (72 h, time 3 day): 197.8 mg/dL
- IP (72 h, time 3 day): 8.2 mg/dL
- K (72 h, time 3 day): 3.8 meq/L
- LDH (72 h, time 3 day): 211 IU/L
- Na (72 h, time 3 day): 141.6 meq/L
- PL (72 h, time 3 day): 118.2 mg/dL
- RALB (72 h, time 3 day): 3.6 g/dL
- TBIL (72 h, time 3 day): 0.2 mg/dL
- TC (72 h, time 3 day): 47.2 mg/dL
- TG (72 h, time 3 day): 94.8 mg/dL
- TP (72 h, time 3 day): 5.7 g/dL
- gamma-GTP (72 h, time 3 day): 1.2 IU/L
- TERMINAL_BW ([…], time 7 day): 252.3 g
- TERMINAL_BW ([…], time 14 day): 307.2 g
- TERMINAL_BW ([…], time 28 day): 355.5 g
- APTT ([…], time 7 day): 25.7 s
- Bas ([…], time 7 day): 0%
- Eos ([…], time 7 day): 0.8%
- Fbg ([…], time 7 day): 216.4 mg/dL
- Hb ([…], time 7 day): 14.2 g/dL
- Ht ([…], time 7 day): 41.8%
- Lym ([…], time 7 day): 81.8%
- MCH ([…], time 7 day): 20.8 pg
- MCHC ([…], time 7 day): 33.9%
- MCV ([…], time 7 day): 61.4 fL
- Mono ([…], time 7 day): 2%
- Neu ([…], time 7 day): 14.4%
- PT ([…], time 7 day): 15 s
- Plat ([…], time 7 day): 120.9 x10_4/uL
- RBC ([…], time 7 day): 681.2 x10_4/ul
- Ret ([…], time 7 day): 3.1%
- WBC ([…], time 7 day): 117.7 x10_2/uL
- APTT ([…], time 14 day): 24 s
- Bas ([…], time 14 day): 0%
- Eos ([…], time 14 day): 1%
- Fbg ([…], time 14 day): 214.6 mg/dL
- Hb ([…], time 14 day): 14.4 g/dL
- Ht ([…], time 14 day): 42%
- Lym ([…], time 14 day): 73%
- MCH ([…], time 14 day): 20.3 pg
- MCHC ([…], time 14 day): 34.1%
- MCV ([…], time 14 day): 59.4 fL
- Mono ([…], time 14 day): 3%
- Neu ([…], time 14 day): 23%
- PT ([…], time 14 day): 14.2 s
- Plat ([…], time 14 day): 121.6 x10_4/uL
- RBC ([…], time 14 day): 708.4 x10_4/ul
- Ret ([…], time 14 day): 4.1%
- WBC ([…], time 14 day): 143.7 x10_2/uL
- APTT ([…], time 28 day): 23.9 s
- Bas ([…], time 28 day): 0%
- Eos ([…], time 28 day): 0.6%
- Fbg ([…], time 28 day): 197 mg/dL
- Hb ([…], time 28 day): 15 g/dL
- Ht ([…], time 28 day): 43.1%
- Lym ([…], time 28 day): 78.6%
- MCH ([…], time 28 day): 19.7 pg
- MCHC ([…], time 28 day): 34.9%
- MCV ([…], time 28 day): 56.3 fL
- Mono ([…], time 28 day): 2.4%
- Neu ([…], time 28 day): 17.6%
- PT ([…], time 28 day): 14.6 s
- Plat ([…], time 28 day): 114.3 x10_4/uL
- RBC ([…], time 28 day): 765.2 x10_4/ul
- Ret ([…], time 28 day): 1.8%
- WBC ([…], time 28 day): 115.9 x10_2/uL
- KIDNEY_L ([…], time 7 day): 1.1 g
- KIDNEY_R ([…], time 7 day): 1.1 g
- KIDNEY_TOTAL ([…], time 7 day): 2.2 g
- KIDNEY_L ([…], time 14 day): 1.2 g
- KIDNEY_R ([…], time 14 day): 1.2 g
- KIDNEY_TOTAL ([…], time 14 day): 2.3 g
- KIDNEY_L ([…], time 28 day): 1.3 g
- KIDNEY_R ([…], time 28 day): 1.3 g
- KIDNEY_TOTAL ([…], time 28 day): 2.7 g
- LIVER ([…], time 7 day): 10.5 g
- LIVER ([…], time 14 day): 13.2 g
- LIVER ([…], time 28 day): 14.1 g
- A/G ([…], time 7 day): 1.8
- ALP ([…], time 7 day): 1213.6 IU/L
- ALT ([…], time 7 day): 37.4 IU/L
- AST ([…], time 7 day): 68.6 IU/L
- BUN ([…], time 7 day): 17.6 mg/dL
- CRE ([…], time 7 day): 0.4 mg/dL
- Ca ([…], time 7 day): 10.4 mg/dL
- Cl ([…], time 7 day): 103.6 meq/L
- DBIL ([…], time 7 day): 0.1 mg/dL
- GLC ([…], time 7 day): 186.6 mg/dL
- IP ([…], time 7 day): 7.3 mg/dL
- K ([…], time 7 day): 3.8 meq/L
- LDH ([…], time 7 day): 193.2 IU/L
- Na ([…], time 7 day): 141.6 meq/L
- PL ([…], time 7 day): 126.6 mg/dL
- RALB ([…], time 7 day): 3.6 g/dL
- TBIL ([…], time 7 day): 0.2 mg/dL
- TC ([…], time 7 day): 46.4 mg/dL
- TG ([…], time 7 day): 122.6 mg/dL
- TP ([…], time 7 day): 5.5 g/dL
- gamma-GTP ([…], time 7 day): 0.8 IU/L
- A/G ([…], time 14 day): 1.8
- ALP ([…], time 14 day): 894 IU/L
- ALT ([…], time 14 day): 33 IU/L
- AST ([…], time 14 day): 58 IU/L
- BUN ([…], time 14 day): 16.6 mg/dL
- CRE ([…], time 14 day): 0.4 mg/dL
- Ca ([…], time 14 day): 10.4 mg/dL
- Cl ([…], time 14 day): 102.4 meq/L
- DBIL ([…], time 14 day): 0.098 mg/dL
- GLC ([…], time 14 day): 201.8 mg/dL
- IP ([…], time 14 day): 7.3 mg/dL
- K ([…], time 14 day): 3.4 meq/L
- LDH ([…], time 14 day): 187.8 IU/L
- Na ([…], time 14 day): 141.4 meq/L
- PL ([…], time 14 day): 141.8 mg/dL
- RALB ([…], time 14 day): 3.8 g/dL
- TBIL ([…], time 14 day): 0.2 mg/dL
- TC ([…], time 14 day): 55.4 mg/dL
- TG ([…], time 14 day): 128 mg/dL
- TP ([…], time 14 day): 5.9 g/dL
- gamma-GTP ([…], time 14 day): 0.8 IU/L
- A/G ([…], time 28 day): 1.7
- ALP ([…], time 28 day): 747.8 IU/L
- ALT ([…], time 28 day): 30.2 IU/L
- AST ([…], time 28 day): 55.8 IU/L
- BUN ([…], time 28 day): 19.4 mg/dL
- CRE ([…], time 28 day): 0.5 mg/dL
- Ca ([…], time 28 day): 10.2 mg/dL
- Cl ([…], time 28 day): 105.8 meq/L
- DBIL ([…], time 28 day): 0.1 mg/dL
- GLC ([…], time 28 day): 187.4 mg/dL
- IP ([…], time 28 day): 6.7 mg/dL
- K ([…], time 28 day): 3.7 meq/L
- LDH ([…], time 28 day): 220.4 IU/L
- Na ([…], time 28 day): 142.6 meq/L
- PL ([…], time 28 day): 138.6 mg/dL
- RALB ([…], time 28 day): 3.8 g/dL
- TBIL ([…], time 28 day): 0.2 mg/dL
- TC ([…], time 28 day): 57.4 mg/dL
- TG ([…], time 28 day): 124 mg/dL
- TP ([…], time 28 day): 6 g/dL
- gamma-GTP ([…], time 28 day): 1 IU/L
